In PMC9343080, “Distribution- and Metabolism-Based Drug Discovery: A Potassium-Competitive Acid Blocker as a Proof of Concept” (Research, 2022):
Like-named read-outs stand apart in the source and are kept apart here.

Key:
[1] = pKa measurement (pH-metric method); assay type: physicochemical
Method: Procedure for pKa and log D7.4 measurements. The pKa was determined using pH-metric Method from DMSO Stock Solution. Procedure for Log D determinations: 15 µL of stock solutions of test compounds and control compound was placed in order into their proper 96-well rack. 500 µL of PBS saturated 1-octanol was added into each vial of the cap-less Log D plate followed by the addition of 500 µL of 1-octanol saturated PBS (pH 7.4). One stir stick was added to each vial and a molded PTFE/Silicone plug was used to seal each vial. Then the Log D plate was transferred to the Eppendorf Thermomixer Comfort plate shaker and shaken at 25°C at 1,100 RPM for 1 hour. After completion of 1 hour, plugs were removed and the stir sticks were removed using a big magnet. The samples were then centrifuged at 25°C at 20,000 g for 20 minutes to separate the phases, and pipette and syringe were used to remove the upper (1-octanol) and lower (buffer) phases to the empty tubes, respectively. Aliquots of 5 µL were taken from upper phases followed by addition of 495 µL of a mixture of H2O and acetonitrile (1:1 in v/v). Vortex for 1 minute, and then aliquots of 50 µL were taken from the diluent followed by addition of 450 µL of a mixture of H2O and acetonitrile (1:1 in v/v). And aliquots of 50 µL were taken from lower phases followed by addition of 450 µL of a mixture of H2O and acetonitrile (1:1 in v/v). 200 μL of diluent was transferred to a new 96-well plate for LC-MS/MS analysis. The dilution factor was changed according to the Log D value and the LC-MS signal response. The concentrations of test compound and control compound in 1-octanol/buffer solution were evaluated by LC-MS/MS. The Log D values of the test compounds and control compound were calculated as follows: […]

[2] = Tissue distribution of SH-337 in rats (LC-MS/MS); assay type: in vivo, rat; settings: for concentration at 15 min / concentration at 1 h / concentration at 2 h / concentration at 4 h / concentration at 24 h: po, 4 mg/kg
Method: 15 SPF male SD rats were randomly divided into 5 groups, three per group. Fasting was for 4 hours. Plasma, heart, liver, and stomach were obtained 0.25, 1, 2, 4, and 24 hours after oral administration of SH-337 (0.4 mg/mL in water) at a dose of 4 mg/kg. At designated time points, rats were anesthetized with ether, and the blood samples were collected via the abdominal aorta. The blood was immediately cooled under ice-chilled conditions and centrifuged at approximately 1500 × g at 4°C for 10 minutes to obtain the plasma. For plasma: 20 μL Std samples in duplicate, QC samples in duplicate, and rat plasma samples were mixed with 60 μL ACN containing IS (200 ng/mL of tolbutamide, 50 ng/mL of propranolol, and 500 ng/mL of Dic) in EP tubes. After the mixture was vortexed for 1 min and then centrifuged for 10 min (13000 rpm, 4°C), transfer 50 μL supernatant to a 96-well plate with 150 μL pure water, shake for 10 min, and finally analyze by LC-MS/MS. For heart and liver: tissue samples were added with 3-folds (w/v) saline in terms of the weight of samples and then homogenated. 20 μL Std samples in duplicate, QC samples in duplicate, and rat heart and liver samples were mixed with 60 μL ACN containing IS (200 ng/mL of tolbutamide, 50 ng/mL of propranolol, and 500 ng/mL of Dic) in EP tubes. After the mixture was vortexed for 1 min and then centrifuged for 10 min (13000 rpm, 4°C), transfer 50 μL supernatant to a 96-well plate with 150 μL pure water, shake for 10 min, and finally analyze by LC-MS/MS. For stomach: tissue samples were added with 3-folds (w/v) saline in terms of the weight of samples and then homogenated. 20 μL Std samples in duplicate, QC samples in duplicate, and rat stomach samples were mixed with 60 μL ACN containing IS (200 ng/mL of tolbutamide, 50 ng/mL of propranolol, and 500 ng/mL of Dic) in EP tubes. After the mixture was vortexed for 1 min and then centrifuged for 10 min (13000 rpm, 4°C), transfer 50 μL supernatant to a 96-well plate with 150 μL pure water, shake for 10 min, and finally analyze by LC-MS/MS.

[3] = system: histamine-stimulated gastric acid secretion; experiment: In vivo inhibition of histamine-stimulated acid secretion in anesthetized rats; parameters: species or system rat; settings: for Total acid output, histamine-stimulated model / Inhibition (%), histamine-stimulated model: rats
Method: 60 SPF SD rats weighing 180-220 g were randomly divided into […]: sham, model, SH-337 (2 mg/kg and 4 mg/kg), vonoprazan (2 mg/kg), males and females are equally divided. Fasting for 24 hours, model and sham groups were treated with deionized water. Drugs and vehicle were given through intragastric administration to rats before anesthesia. 1 h after administration, pylorus was ligated. 5 min later, histamine 2HCl (30 mg/10 mL/kg) was injected subcutaneously. At 3 h after histamine administration, the rats were killed by CO2 asphyxiation. The gastric contents were collected in a 10 mL centrifuge tube after removing their stomachs. Centrifuge at 3000 g for 10 min, and then, determine the total acid output during a 3 h period by 0.1 M NaOH [52, 53]. %Inhibition = (average of modelacid–drugacid)/average of modelacid × 100%.

[4] = Metabolite identification and profiling in human hepatocytes; assay type: in vitro ADME; settings: SH-337, human hepatocytes, 120 min incubation
Method: SH-337 was incubated with rat or human hepatocytes at a concentration of 1.0 × 10^6 cells/mL for 60 min or 120 min (rat 60 min, human 120 min) at 37°C in a CO2 incubator. The samples were precipitated with acetonitrile at 1 : 2 and further centrifuged; the supernatants were dried with a stream of N2 gas. The residues were reconstituted with 300 μL of 10% acetonitrile/H2O (0.1% TFA) and analyzed by LC-MS/MS. The assays were pursued under the conditions provided in Supplementary Tables S5–S8.

[5] = rats, single oral 4 mg/kg SH-337
[6] = stomach-liver distribution ratio, rats, oral 4 mg/kg

CNCc1cc(-c2ccc(OCC3CC3)cc2F)n(S(=O)(=O)c2cccnc2)c1.Cl.Cl [SH-337, 1-(5-(4-(cyclopropylmethoxy)-2-fluorophenyl)-1-(pyridin-3-ylsulfonyl)-1H-pyrrol-3-yl)-N-methylmethanamine dihydrochloride]
pKa [1]: 9.03 | pKa ([1]; read-out: pKa): 9 | C Stomach/CLiver (stomach-liver distribution ratio) ([2]; AUC, rats, i.g. 4 mg/kg SH-337): 7.1 | concentration at 15 min ([2]; male, SD, rat, liver, rats, single oral 4 mg/kg SH-337, read-out: Concentration, Liver, 15 min): 5.24 µg/mL | concentration at 1 h ([2]; male, SD, rat, liver, rats, single oral 4 mg/kg SH-337, read-out: Concentration, Liver, 1 h): 0.846 µg/mL | concentration at 2 h ([2]; male, SD, rat, liver, rats, single oral 4 mg/kg SH-337, read-out: Concentration, Liver, 2 h): 0.262 µg/mL | concentration at 4 h ([2]; male, SD, rat, liver, rats, single oral 4 mg/kg SH-337, read-out: Concentration, Liver, 4 h): 0.145 µg/mL | concentration at 24 h ([2]; male, SD, rat, liver, rats, single oral 4 mg/kg SH-337, read-out: Concentration, Liver, 24 h): 0.0013 µg/mL | concentration at 1 h ([2]; male, SD, rat, plasma, rats, 1 h after oral administration of 4.0 mg/kg (Table 2), read-out: Drug concentration, Plasma): 0.0071 µg/mL | concentration at 15 min ([2]; male, SD, rat, plasma, rats, single oral 4 mg/kg SH-337, read-out: Concentration, Plasma, 15 min): 0.0094 µg/mL | concentration at 1 h ([2]; male, SD, rat, plasma, rats, single oral 4 mg/kg SH-337, read-out: Concentration, Plasma, 1 h): 0.0155 µg/mL | concentration at 2 h ([2]; male, SD, rat, plasma, rats, single oral 4 mg/kg SH-337, read-out: Concentration, Plasma, 2 h): 0.0051 µg/mL | concentration at 4 h ([2]; male, SD, rat, plasma, rats, single oral 4 mg/kg SH-337, read-out: Concentration, Plasma, 4 h): 0.0067 µg/mL | AUC(0-t) ([2]; male, SD, rat, plasma, rats, single oral 4 mg/kg SH-337, read-out: AUC-last, Plasma): 0.0326 µg·h/mL | Kp ([2]; male, SD, rat, stomach / plasma, oral, AUC, rats, i.g. 4 mg/kg SH-337, read-out: C Stomach/CPlasma (stomach-plasma distribution ratio)): 1360 | concentration at 1 h ([2]; male, SD, rat, stomach, rats, 1 h after oral administration of 4.0 mg/kg (Table 2), read-out: Drug concentration, Stomach): 6.69 µg/mL | concentration at 15 min ([2]; male, SD, rat, stomach, rats, single oral 4 mg/kg SH-337, read-out: Concentration, Stomach, 15 min): 9.82 µg/mL | concentration at 1 h ([2]; male, SD, rat, stomach, rats, single oral 4 mg/kg SH-337, read-out: Concentration, Stomach, 1 h): 3.35 µg/mL | concentration at 2 h ([2]; male, SD, rat, stomach, rats, single oral 4 mg/kg SH-337, read-out: Concentration, Stomach, 2 h): 3.03 µg/mL | concentration at 4 h ([2]; male, SD, rat, stomach, rats, single oral 4 mg/kg SH-337, read-out: Concentration, Stomach, 4 h): 2.81 µg/mL | concentration at 24 h ([2]; male, SD, rat, stomach, rats, single oral 4 mg/kg SH-337, read-out: Concentration, Stomach, 24 h): 0.136 µg/mL | Kp at 1 h ([2]; male, SD, rat, ratio of stomach to plasma distribution 1 h after oral administration of 4.0 mg/kg, read-out: C Stomach/CPlasma): 943 | AUC0–24, Liver ([2]; rats, i.g. 4 mg/kg SH-337): 6155.6 ng equiv. h/mL or g | AUC0–24, Plasma ([2]; rats, i.g. 4 mg/kg SH-337): 32.6 ng equiv. h/mL or g | AUC0–24, Stomach ([2]; rats, i.g. 4 mg/kg SH-337): 44240.4 ng equiv. h/mL or g | retention in the stomach ([2]; rats, oral 4 mg/kg): more than 24 h | AUC-last, Liver [2, 5]: 6155.6 ng·h/g | AUC-last, Stomach [2, 5]: 44240.4 ng·h/g | Concentration, Plasma, 24 h ([2]; rats, single oral 4 mg/kg SH-337, BLQ: below limit of quantification): BLQ | CStomach/CLiver, 15 min [2, 6]: 1.9 | CStomach/CLiver, 1 h [2, 6]: 3.95 | CStomach/CLiver, 2 h [2, 6]: 11.6 | CStomach/CLiver, 4 h [2, 6]: 19.4 | CStomach/CLiver, 24 h [2, 6]: 104.9 | In vivo efficacy (% inhibition) ([3]; histamine-induced acid secretion in rats, 2 mg/kg, i.g. (Table 2)): 83% | Total acid output, histamine-stimulated model ([3]; i.g. 2 mg/kg): 0.31 ± 0.39^∗∗ 10^−4 mol | Inhibition (%), histamine-stimulated model ([3]; i.g. 2 mg/kg (Table 6)): 80% | Inhibition (%), histamine-stimulated model ([3]; i.g. 4 mg/kg): 93% | Total acid output, histamine-stimulated model ([3]; i.g. 4 mg/kg): 0.14 ± 0.48^∗∗ 10^−4 mol | Relative peak area, Hheps [4]: 76.5%
